Experimental data reported in the supplement of paper PMC9763283.
± gives the standard deviation of the averaged measurements.

Experiments:
Experiment in all cases: area under growth-rate inhibition curve (AUC GRI) (dimensionless (GR-based AUC)); higher = less growth inhibition
Conditions in all cases: exposure time: 72 h; concentrations: 0.1, 1, 10 uM
[1] = system: MDA-MB-468
Summary of the method: (§1)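 The area under the growth-rate inhibition curve was measured in six breast cancer cell line models, covering triple-negative lines and HER2+ lines, both parental and resistant to a two-drug combination. Cells were exposed to compound at 0.1, 1 or 10 µM for 72 h, fixed in 4% paraformaldehyde, and nuclei were stained with Hoechst 33342 or DAPI for imaging and counting. Day 0 plates, untreated Day 3 plates and DMSO controls served to correct growth across 2 biological replicates.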

[2] = system: BT474-P
Summary of the method: as §1

[3] = system: SKBR3-LTR
Summary of the method: as §1

[4] = system: SKBR3-P
Summary of the method: as §1

[5] = system: BT474-LTR
Summary of the method: as §1

[6] = system: MDA-MB-231
Summary of the method: as §1

| Structure (SMILES) | area under growth-rate inhibition curve [1] | area under growth-rate inhibition curve [2] | area under growth-rate inhibition curve [3] | area under growth-rate inhibition curve [4] | area under growth-rate inhibition curve [5] | area under growth-rate inhibition curve [6] |
| --- | --- | --- | --- | --- | --- | --- |
| CN/C(=C\[N+](=O)[O-])NCCSCc1csc(CN(C)C)n1 [Nizatidine] | 1.04 | 1.05 | 1.05 | 1 | 1.07 | 1.02 |
| Oc1c(Cl)cc(Cl)cc1Sc1cc(Cl)cc(Cl)c1O [Bithionol] | 0.985 | 0.999 | 1.02 | 1.01 | 1.06 | 1.03 |
| CCN(CC)C(=O)c1ccc(C2=CC3(CCNCC3)Oc3cccc(O)c32)cc1.Cl [ADL5859 HCl] | 1.04 | 1.05 | 1.1 | 1.03 | 1.07 | 1.03 |
| O=c1ncnc2[nH][nH]cc1-2 [Allopurinol] | 1.06 | 1.06 | 1.07 | 1.03 | 1.1 | 1.03 |
| COc1ccc(C[C@@H]2c3cc(OC)c(OC)cc3CC[N@+]2(C)CCC(=O)OCCCCCOC(=O)CC[N@@+]2(C)CCc3cc(OC)c(OC)cc3[C@H]2Cc2ccc(OC)c(OC)c2)cc1OC.O=S(=O)([O-])c1ccccc1.O=S(=O)([O-])c1ccccc1 [Cisatracurium Besylate] | 0.988 | 0.998 | 1.01 | 0.961 | 1.01 | 0.997 |
| CN(C)CCC(c1ccc(Br)cc1)c1ccccn1.O=C(O)/C=C\C(=O)O (stereo unspecified) [Brompheniramine hydrogen maleate] | 1.04 | 1.05 | 1.04 | 0.998 | 1.09 | 1.03 |
| COc1cc2nc(N3CCN(C(=O)C4COc5ccccc5O4)CC3)nc(N)c2cc1OC.CS(=O)(=O)O (stereo unspecified) [Doxazosin Mesylate] | 0.966 | 0.991 | 1.03 | 0.958 | 1.07 | 0.99 |
| O=C(CCCN1CCC(O)(c2ccc(Cl)cc2)CC1)c1ccc(F)cc1.[Cl-].[H+] [Haloperidol hydrochloride] | 1.04 | 1.03 | 1.05 | 1.01 | 1.07 | 1.04 |
| CNCC(=O)c1ccc(O)c(O)c1.Cl [Adrenalone HCl] | 1.02 | 1.04 | 1.07 | 1.03 | 1.1 | 0.964 |
| CN(C)CCOC(c1ccc(Cl)cc1)c1ccccn1 (stereo unspecified) [carbinoxamine] | 1.04 | 0.999 | 1.06 | 1.03 | 1.04 | 1.04 |
| COc1ccc(C[C@H](C)NC[C@@H](O)c2ccc(O)c(NC=O)c2)cc1.COc1ccc(C[C@H](C)NC[C@@H](O)c2ccc(O)c(NC=O)c2)cc1.O=C(O)/C=C/C(=O)O [Formoterol Hemifumarate] | 1.01 | 1.01 | 1.09 | 1.03 | 1.05 | 0.93 |
| CN1CCN2c3ccccc3Cc3ccccc3C2C1.[Cl-].[H+] (stereo unspecified) [Mianserin HCl] | 1.06 | 1.07 | 1.09 | 1.02 | 1.12 | 1.03 |
| CN(C)CC/C=C1\c2ccccc2COc2ccc(CC(=O)O)cc21.Cl [Olopatadine HCl] | 0.999 | 1.04 | 1.02 | 1.02 | 1.1 | 1.04 |
| Cc1cc2c(cc1CC(=O)c1sccc1S(=O)(=O)[N-]c1onc(C)c1Cl)OCO2.[Na+] [Sitaxentan sodium] | 1.04 | 1.06 | 1.07 | 1.04 | 1.08 | 1.04 |
| CCC1(c2ccccc2)C(=O)NCNC1=O [Primidone] | 1.03 | 0.982 | 1.06 | 1.03 | 1.02 | 1.04 |
| COc1cc2c(cc1OC)CC(=O)N(CCCN(C)CC1Cc3cc(OC)c(OC)cc31)CC2.Cl (stereo unspecified) [Ivabradine HCl] | 1.01 | 1.02 | 1.07 | 1.03 | 1.04 | 1.01 |
| N#Cc1cc(CN2CCC(Nc3ncnc4sc(Cl)cc34)CC2)ccc1F.O=C(O)/C=C\C(=O)O | 0.885 | 0.879 | 0.964 | 0.839 | 0.875 | 0.988 |
| CC/C(=C(\c1ccccc1)c1ccc(OCCN(C)C)cc1)c1ccccc1.O=C(O)CC(O)(CC(=O)O)C(=O)O [Tamoxifen Citrate] | 0.952 | 0.851 | 0.982 | 0.938 | 0.896 | 0.958 |
| C[C@@H](NCCCc1cccc(C(F)(F)F)c1)c1cccc2ccccc12.[Cl-].[H+] [Cinacalcet HCl] | 0.896 | 0.9 | 0.883 | 0.909 | 0.922 | 0.931 |
| CNCC[C@@H](Oc1ccccc1C)c1ccccc1.Cl [Atomoxetine HCl] | 1.01 | 1.04 | 1.05 | 1.01 | 1.09 | 1.02 |
| Cl.Cl.NCCc1cnc[nH]1 [Histamine 2HCl] | 1.02 | 1.05 | 1.05 | 1.01 | 1.11 | 1.02 |
| CCCCC1=NC2(CCCC2)C(=O)N1Cc1ccc(-c2ccccc2-c2nn[nH]n2)cc1 [Irbesartan] | 1.04 ± 0.023 | 1.032 ± 0.0013 | 1.04 ± 0.036 | 1.03 ± 0.019 | 1.063 ± 0.0091 | 1.042 ± 0.002 |
| CCNC1(C(N)=O)CCN(c2ncnc3c2nc(-c2ccccc2Cl)n3-c2ccc(Cl)cc2)CC1.[Cl-].[H+] | 1 | 0.991 | 1.04 | 1.01 | 1.06 | 0.999 |
| COC(=O)C1=CCCN(C)C1.[Br-].[H+] [Arecoline] | 0.988 | 1.04 | 1.03 | 1.02 | 1.06 | 1.03 |
| CN1C2CC(O)CC1C1OC12 (stereo unspecified) [Scopine] | 1.05 | 1.05 | 1.05 | 1.03 | 1.08 | 1.07 |
| Clc1ccc2c(c1)CCc1cccnc1C2=C1CCNCC1 [Desloratadine] | 0.988 | 0.984 | 1.03 | 0.998 | 1.07 | 1 |
